Results published in PubChem BioAssay (NCI).
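Five compound concentrations were applied to cells in 96-well plates for 48 hours; endpoints were derived by simple linear interpolation of the resulting dose-response curve. TGI: concentration producing complete growth inhibition.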

Columns and labels:
Assay in all cases: NCI anticancer screen, dose series, 48 h
CAKI-1 renal = system: CAKI-1 renal
CCRF-CEM leukemia = system: CCRF-CEM leukemia
HCT-116 colon = system: HCT-116 colon
IGROV1 ovarian = system: IGROV1 ovarian
NCI-H226 lung = system: NCI-H226 lung
NCI-H23 lung = system: NCI-H23 lung
NCI-H522 lung = system: NCI-H522 lung
OVCAR-3 ovarian = system: OVCAR-3 ovarian
SF-295 CNS = system: SF-295 CNS
SF-539 CNS = system: SF-539 CNS
SK-MEL-28 melanoma = system: SK-MEL-28 melanoma
SK-OV-3 ovarian = system: SK-OV-3 ovarian
T-47D breast = system: T-47D breast
MALME-3M melanoma = system: MALME-3M melanoma

Row | Structure (SMILES) | TGI (CAKI-1 renal) [µM] | TGI (CCRF-CEM leukemia) [µM] | TGI (HCT-116 colon) [µM] | TGI (IGROV1 ovarian) [µM] | TGI (NCI-H226 lung) [µM] | TGI (NCI-H23 lung) [µM] | TGI (NCI-H522 lung) [µM] | TGI (OVCAR-3 ovarian) [µM] | TGI (SF-295 CNS) [µM] | TGI (SF-539 CNS) [µM] | TGI (SK-MEL-28 melanoma) [µM] | TGI (SK-OV-3 ovarian) [µM] | TGI (T-47D breast) [µM] | TGI (MALME-3M melanoma) [µM]
1 | CCOC(=O)/C=C(/C(=O)OCC)n1ccc(=O)n(Cc2cn(COCCOC(C)=O)nn2)c1=O | 14 | 4.8 | 80.8 | 31.9 | > 100 | 41.4 | 16 | 33.4 | > 100 | 34.5 | 35.1 | > 100 | 81 | 
2 | CCOC(=O)c1nc2ccc(C(F)(F)F)cc2nc1NCc1cc(OC)c(OC)c(OC)c1 | > 100 |  | > 100 | > 100 | > 100 | > 100 | > 100 | > 100 | > 100 | > 100 | > 100 |  | > 100 | 
3 | Oc1ccc(-c2nc(-c3cccnc3)c(-c3ccc(Cl)cc3)[nH]2)cc1 | 43.3 | 17.9 | 31.6 | 23 | 33.3 | 25.9 | 23.8 | 28 | 27.3 |  | 32.1 | 26.8 | 28.6 | 26.8
4 | CCOc1cn(C2CC(O)C(CO)O2)c(=O)[nH]c1=O (centres undefined) | > 100 | > 100 | > 100 | > 100 | > 100 | > 100 |  | > 100 |  |  | > 100 | > 100 | > 100 | > 100
5 | COC1=C(OC)C(=O)C(Cc2c(C)nc3sc(C)cn23)=C(C)C1=O | 37.4 | 53.7 | 49.9 | 32.2 |  | 37.2 | 70.6 | 35.6 | 43.7 | 32.4 | 29.9 | 38.9 | > 100 | 37.3
6 | O=C1/C(=C/c2ccc([N+](=O)[O-])cc2)C(=O)N(c2ccccc2)C1c1ccccc1 (centres undefined) | > 10 | > 10 | > 10 | > 10 | > 10 | > 10 | > 10 | > 10 | > 10 | > 10 | > 10 | > 10 | > 10 | 
7 | CC1=NNC(N)=N/C1=C\C(Sc1ccc(Cl)cc1)c1ccc([N+](=O)[O-])cc1 (centres undefined) | > 100 | > 100 | > 100 | > 100 | 68.1 | > 100 | > 100 |  | > 100 |  | > 100 | > 100 | > 100 | > 100
8 | CC1NC(=O)CC(c2ccccc2)N(N=O)C1c1ccccc1 (centres undefined) | > 100 | 71.6 | > 100 | > 100 | > 100 | > 100 | 49.7 | > 100 | > 100 | 48.4 | > 100 | 62.6 |  | > 100
